The text below walks through data of patent publication US20090221621A1, “Methods of Reducing Alcohol-Induced Dose Dumping for Opioid Sustained Release Oral Dosage Forms” (priority 2005, published 2009).

A short description of the series: Release test of matrix tablets, USP Type VII, 40% EtOH/water 0-4 hrs then water vs water only (Examples 9-11). The format is physicochemical. The conditions noted are these: oxycodone HCl and hydromorphone HCl 30 mg tablets with vs without stearyl alcohol, FIGS. 12 and 13. On the procedure:
Ten grams each of formulations with and without stearyl alcohol were prepared via wet granulation technique. The amounts set forth in Tables 5 and 6 of oxycodone hydrochloride, lactose and Eudragit® RS PO were combined in an appropriate vessel and blended for 5 minutes. The powder mixture was granulated with water until a moist mass was produced. The wet mass was then passed through a 16-mesh size screen and was allowed to dry overnight at ambient conditions. In a small vessel, the required amount of stearyl alcohol (a stiffening agent) was melted over a water bath. Keeping the molten stearyl alcohol in the water bath, the desired amount of dried granules were added and mixed until the granules were sufficiently coated with the molten stearyl alcohol. The mixture was removed from the water bath and allowed to cool at ambient conditions before sizing through a 16-mesh screen. Talc and magnesium stearate were added to the coated granules and blended using a suitable blender. The granules were then compressed to 375 mg tablets using an appropriate tabletting machine, such as a Carver press. For granules that were not coated with stearyl alcohol, granules were compressed to 300 mg tablets.
The same manufacturing procedure as Example 7 was used, with the substitution of hydromorphone HCl instead of oxycodone HCl.
Samples for this test came from Examples 7 and 8. […]

Turning to `CCCCCCCCCCCCCCCCCCO` [Stearyl alcohol, stearyl alcohol], the “Effect of the excipient on ethanol effect on opioid release functionality” value is “suppressed ethanol effect on opioid functionality”.
